The nature of data set [1]: Pharmacokinetics of compound II-19 i.p. in male ICR mice. The note with it: 10 mg/kg. The format is in vivo, mouse. The protocol: FIG. 11 is a graph of the pharmacokinetics of compound II-19 clearance in mouse plasma. Pharmacokinetic profile of Compound II-19 in. male ICR mice is shown. Compound II-19 was dissolved in 5% DMSO, 15% hydroxypropyl-beta-cyclodexmain, and 50 mM Tris in water to yield a nominal concentration of 5 mg/mL. This solution was administered intraperintoncally to […] male ICR mice at a dose of 10 mg/kg. Three mice in each group were used for blood, collection, at each of 8 time points: 5 minutes, 0.25 hrs, 0.5 hrs, 1 hr, 2 hrs, 4 hrs, 8 hrs, and 24 hrs postdose. Plasma samples at these time points were analyzed for the quantity of compound II-19 by standard liquid chromatography/mass spectroscopy methods.
Pharmacokinetic studies were conducted on compound II-19 to assess plasma clearance and distribution in male ICR mice. Compounds were administered i.p. (as in the xenograft study, Example 8) at 10 mg/kg. Blood samples were collected at various time points (pre-injection, 5 min, 15 min, 30 min, 1 h, 2 h, 4 h, 8 h and 24 h), and centrifuged to remove red blood cells. […] Plasma levels of drug were quantified by LC-MS (C18 column elided with linear gradient from 0% acetonitrile, 1% formic acid to 100% acetonitrile, 1% formic acid) against a set of standards prepared by diluting a known quantity of II-19 into mouse plasma.

In data set [2] the test system is mitochondria in semi-permeabilized SUDHL-6 cells. Put plainly: In situ mitochondrial assay (cytochrome c release), SUDHL-6. The note with it: SUDHL-6 (DHL-6), Bax/Bak functional, 10 uM. The format is cell-based. From the text:
The on-target activity of compound II-19 was validated. Changes in mitochondrial integrity were observed utilizing anti-cytochrome c conjugated to Alcxa488 (BD). When the mitochondria are intact, they retain cytochrome c and have bright, punctate staining with the antibody whereas cells with compromised mitochondrial integrity will lose cytochrome c and will not stain with the antibody. This can be observed by microscopy as well as measured by a shift in fluorescence on the FL1 channel of a flow cytometer.
The selective response of mitochondria in semi-permeabilized cell lines to the compounds was observed. The assay was adapted from (Campos et al. (2006) Cytometry Part A. 69(A):515-523).
Suspension cell lines SUDHL10 and SUDHL6 were grown in RPMI, washed once in 1xPBS and re-suspended at a concentration of 2e6/ml in assay buffer with 0.0025% Digitonin. Assay buffer; 300 mM Trehalose, 10 mM HEPES-KOH pH 7.7, 80 mM KCl, 1 mM EGTA, 1 mM EDTA, 0.1% BSA, 5 mM Succinate. Cells are incubated with test and control compounds at 10^6 cells/treatment for 1 hour at room temperature. […] Cytochrome c loss was measured by microscopy. At least 100 cells per treatment were counted and scored as positive for cytochrome c loss if they lacked staining. In both methods DMSO was calculated as 0% cytochrome c loss and the Bim response for DHL6 was used to determine 100% cytochrome c loss.

Data set [3] concerns AML-3 acute myelogenous leukemia cell line. Put plainly: Cell viability MTS assay, AML-3. The format is cell-based. The note with it: Homo sapiens, AML3, 48 hours, read-out: EC50, cell killing in AML-3. On the procedure:
The lymphoid derived cell lines DHL-6 and DHL-10 were obtained from Anthony Letai of the Dana Father Cancer Research Institute, Boston, Mass. The […] derived cell line NCP-H929 was obtained irons, the NIH/NCI cell repository. AML-3 cells were obtained from Dr. Michael Andreef (MD Anderson Cancer Center, Houston, Tex.). Cells were grown in RPMI 1640 medium (GIBCO-BRL) supplemented with Pen-strep-glutamine (Gibco 10378) and 5% fetal bovine serum.
Cells were expanded in tissue culture in appropriate media and then subcultured into 96-well plates at a seeding density of 20,000-40,000 cells per well, and cells were treated with one or more compounds that were titrated info appropriate medium with FCS. Cell lines were treated with compound A at concentrations ranging from 25 μM to 25 nM. The BH3-mimetic obatoclax (Nguyen M et al. (2007), Proc. Natl. Acad. Sci. USA 104:19512-19517) was also tested against the SUDHL-6, SUDHL-10, and NCI-H929 cell lines. Cells were treated for 48 hours and scored for viability using the MTS assay (Promega). Growth inhibition was indicated as a percentage of control cell growth. Growth was determined by measuring the A570 (control cells)—A570 (treated cells)/A570 (control cells). EC50 values were calculated using Graphpad Prizm software.
A general note: Tetrazolium assays rely on reduction of a dye to a coloured formazan, in cell work by metabolically active cells.

pEC50: −log10 of the molar value. “Also recorded” adds a separate entry of the source. A value given as a limit tells only on which side of the number the result lay.

For orientation: half-life means the time in which the quantity being followed falls by half. A lower half-life goes with rapid decline. In general, pEC50 refers to the EC50 on a negative log10 scale, so that one unit is a factor of ten. Consider `COC(=O)c1ccc(O)c2nc3c(C=O)c(O)c(-c4c(O)c(C=O)c5nc6c(O)ccc(C(=O)OC)c6nc5c4O)c(O)c3nc12` [II-19, dimethyl 4,4′-diformyl-1,1′,3,3′,6,6′-hexahydroxy-[2,2′-biphenazine]-9,9′-dicarboxylate], for which the “time for which circulating drug levels can be sustained” value in data set [1] is listed as over 24 h. This compound also displayed a half-life in data set [1] (mouse, plasma, ip) of over 20 h. Besides, in data set [2], the “cytochrome c release from mitochondria” value is on record as “causes release of cytochrome c; also recorded: direct activity”. Moreover, the pEC50 in data set [3] was 5.00.

Values taken from patent US9351971B2, “Substituted 2,2′-biphenazines for treating diseases” (Eutropics Pharmaceuticals, Inc., priority 2010, dated 2016).
